Like-named read-outs stand apart in the source and are kept apart here. A value given as a limit tells only on which side of the number the result lay.

For one series, the target named is KIF18A (Homo sapiens (Human), UniProt Q8NI77). The experiment in a line: KIF18A Biochemical Assay (ATPase, ADP-Glo).
The test system of another series is OVCAR-3 xenografts. As to the kind of experiment: 28 day in vivo efficacy in OVCAR-3 xenografts. The settings on record: day 28, 30 mg/kg once daily, oral. The arrangement: species or system female NOD SCID mice. As to the method: Experiments were performed in female NOD SCID mice (GenPharmatech Co.). Animals were allowed to acclimate for 7 days before the study. The general health of the animals were evaluated by a veterinarian, and complete health checks were performed prior to the study. General procedures for animal care and housing were in accordance with the standard, Commission on Life Sciences, National Research Council, Standard Operating Procedures (SOPs) of Pharmaron, Inc. The mice were kept in laminar flow rooms at constant temperature and humidity with 3-5 mice in each cage. Animals were housed in polycarbonate cages which had dimensions of 300×180×150 mm^3 and in an environmentally monitored, well-ventilated room maintained at a temperature of 23±3° C. and a relative humidity of 40%-70%. Fluorescent lighting provided illumination approximately 12 hours per day. Animals had free access to irradiation sterilized dry granule food during the entire study period except for time periods specified by the protocol, as well as sterile drinking water in a bottle that was available ad libitum during the quarantine and study periods.
The OVCAR-3 (ATCC) tumor cell lines were maintained in vitro as a monolayer in RPMI 1640 medium supplemented with 20% heat inactivated FBS, at 37° C. in an atmosphere of 5% CO2 in air. The tumor cells were sub-cultured, not exceeding 4-5 passages, and cells growing in an exponential growth phase were harvested and counted for tumor inoculation. Each mouse was inoculated subcutaneously on the right flank with OVCAR-3 tumor cells (2×10^7) in 0.2 mL of RPMI-1640 with Matrigel (1:1) for model development.
Treatment was started when the mean tumor size reached approximately 150-200 mm^3, at which time the mice were randomized into treatment groups such that the average starting tumor size is similar for each treatment group. Animals were then treated with vehicle or indicated mg/kg (10-100) of compound at a given frequency (e.g., BID, QD, 4 days on treatment followed by 3 days off treatment) by oral gavage at a final dosing volume of 10 mL/kg.
The measurement of tumor size was conducted with a caliper and recorded twice per […] week. The tumor volume (TV) (mm^3) was estimated using the formula: TV=a×b^2/2, where “a” and “b” are long and short diameters of a tumor, respectively.
The TVs were used for calculation of the tumor growth inhibition and tumor growth delay. For the tumor growth inhibition (TGI), the value using the formula: […]
The “TVfinal” and “TVinitial” are the mean tumor volumes on the final day and initial day, respectively.
All statistical tests was conducted on GraphPad, and the level of significance was set at 5% or P<0.05. The group means and standard deviations were calculated for all measurement parameters. Two-way RM ANOVA followed by Tukeys post hoc comparisons of the means was applied among groups.
Additionally, after compound treatment, the animals were observed an additional 28 days without compound treatment.
The initial treatment period with Example 1 was 28 days, after which overall efficacy and tolerability were evaluated based on tumor volume and body weight changes observed during the treatment period (FIG. 2a and FIG. 2b).
The initial treatment period with Example 1 was 28 days, after which overall efficacy and tolerability were evaluated based on tumor volume and body weight changes observed during the treatment period (FIG. 3a and FIG. 3b).

A short description of series [1]: Bone marrow concentration in 28 day OVCAR-3 xenograft study. The class given is in vivo, mice. The note with it: NOD SCID, mouse, 28 day study; for concentration at 6 h: read-out: Bone marrow concentration at 6 h post-last dose; for concentration at 24 h: read-out: Bone marrow concentration at 24 h post-last dose. As to the method: On Day 28, tissues were collected from animals. About 30-60 μL of whole blood was collected into tubes containing EDTA anticoagulant, and plasma was harvested by centrifugation at 4,000 g×5 min and stored at −80° C. until analysis. Plasma analysis followed the same protocol as for the Day 1 plasma analysis. Additionally, the femurs of the mice were cut and put in pre-weighed tubes. The bone marrow was harvested by centriguation at 8,000 g×15 min. Then, the total weight of both the bone marrow and the tube was recorded. The bone marrow was stored at −80° C. until analysis.
Samples were collected from animals 6 h after the last dose of compound and at 24 h after the last dose of compound.

KIF18A, sequence (Q8NI77 1-367): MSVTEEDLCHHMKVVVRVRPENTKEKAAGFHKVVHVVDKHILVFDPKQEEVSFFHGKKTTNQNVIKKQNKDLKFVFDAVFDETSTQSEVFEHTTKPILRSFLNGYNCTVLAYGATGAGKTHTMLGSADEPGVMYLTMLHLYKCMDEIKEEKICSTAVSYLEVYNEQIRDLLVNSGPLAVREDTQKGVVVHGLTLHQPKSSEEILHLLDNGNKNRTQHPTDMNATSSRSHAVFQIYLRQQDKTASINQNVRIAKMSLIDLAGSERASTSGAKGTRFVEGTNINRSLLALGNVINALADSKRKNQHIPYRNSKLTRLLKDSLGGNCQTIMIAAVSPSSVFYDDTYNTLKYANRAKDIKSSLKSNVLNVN
KIF18A, sequence (P02550 whole entry partner): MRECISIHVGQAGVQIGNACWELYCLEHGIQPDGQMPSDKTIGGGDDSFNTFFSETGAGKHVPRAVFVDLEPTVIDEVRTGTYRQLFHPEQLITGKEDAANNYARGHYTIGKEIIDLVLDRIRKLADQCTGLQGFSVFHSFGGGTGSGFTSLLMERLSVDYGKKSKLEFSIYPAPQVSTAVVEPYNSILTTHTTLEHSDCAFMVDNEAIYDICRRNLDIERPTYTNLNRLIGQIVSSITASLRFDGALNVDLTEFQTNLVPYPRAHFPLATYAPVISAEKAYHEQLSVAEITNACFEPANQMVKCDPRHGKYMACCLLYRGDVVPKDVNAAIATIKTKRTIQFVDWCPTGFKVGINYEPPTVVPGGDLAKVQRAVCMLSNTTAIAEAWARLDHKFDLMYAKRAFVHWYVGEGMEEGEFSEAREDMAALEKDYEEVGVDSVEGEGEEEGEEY
KIF18A, sequence (P02554 whole entry partner): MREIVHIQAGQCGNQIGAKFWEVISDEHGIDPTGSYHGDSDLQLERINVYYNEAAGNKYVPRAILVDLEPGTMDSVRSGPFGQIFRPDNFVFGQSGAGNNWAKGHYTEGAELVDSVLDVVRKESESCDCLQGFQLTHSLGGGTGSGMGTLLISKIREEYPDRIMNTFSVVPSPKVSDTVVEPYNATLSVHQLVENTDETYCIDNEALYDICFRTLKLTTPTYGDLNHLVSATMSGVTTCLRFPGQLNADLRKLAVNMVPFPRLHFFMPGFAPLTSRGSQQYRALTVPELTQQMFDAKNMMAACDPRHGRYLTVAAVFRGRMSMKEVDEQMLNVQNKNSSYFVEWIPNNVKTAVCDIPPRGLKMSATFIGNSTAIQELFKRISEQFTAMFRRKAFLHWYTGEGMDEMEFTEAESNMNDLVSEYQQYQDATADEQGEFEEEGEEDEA

The term IC50 denotes the concentration needed to halve the response being measured. Higher therefore signals lower potency. As to `Cc1cc(NC(=O)c2ccc(NS(=O)(=O)CCO)cc2N2CC[C@@]3(C(F)F)C[C@H]3C2)nc(N2CCC(F)(F)CC2)n1` (single isomer, unassigned) [Example 29b], the half-inhibitory concentration (IC50) on KIF18A is less than 100 nM. In addition, in the series with OVCAR-3 xenografts, the “% T/C” value was determined as 1% and the “% TGI” value is 99%. In addition, in series [1] (10 mg/kg QD oral), the concentration at 6 h stood at 2800 ng/g and the concentration at 24 h is 210 ng/g. Further, in series [1] (30 mg/kg QD oral), the concentration at 6 h is 10500 ng/g and the concentration at 24 h amounted to 900 ng/g.

For the origin of these results see patent publication US20250197428A1, “INHIBITORS OF KIF18A AND USES THEREOF” (ACCENT THERAPEUTICS, INC., priority 2022, published 2025).
